We go through 25 compounds from patent publication US4870081A (priority 1986, dated 1989).

Counter-ions that a name gives are not always drawn. Like-named read-outs stand apart in the source and are kept apart here.

Experiment [1] addresses muscarinic receptors (rat cerebral cortex). The experiment is described as follows: Radio ligand binding: displacement of the muscarinic agonist 3H-OXO-M (3H-Oxotremorine-M). Also on record: species or system Hooded Lister rats. To be noted: 2 nM 3H-OXO-M, 2 mM magnesium chloride, 37° C., 30 min.
Experiment [2] shares this target. Format: binding, Hooded Lister rats. Particulars: 0.27 nM 3H-QNB, 37° C., 30 min.

For `COC(=O)C1=CC2CCCN(C1)C2` (racemic) [E8, (±) Methyl 1-azabicyclo[3.3.1]non-3-en-3-yl carboxylate hydrochloride], the values for the IC50 in experiment [1] and in experiment [2] were 118 nM and 4100 nM, respectively.

As to `CC(=O)O[C@@H]1C[C@H]2CCCN(C2)C1` (relative stereo) [E1, (±) exo-1-Azabicyclo[3.3.1]non-3-yl acetate hydrochloride], the IC50 – broadly, the concentration at which inhibition is half-maximal – was found to be 81 nM in experiment [1] and 3900 nM in experiment [2].

Consider `CCO[C@@H]1C[C@H]2CCCN(C2)C1` (relative stereo) [E2, (±) exo-3-Ethoxy-1-azabicyclo[3.3.1]nonane oxalate], for which the results for the IC50 in experiment [1] and in experiment [2] were 210 nM and 6500 nM, respectively.

For the compound `NC(=O)O[C@@H]1C[C@H]2CCCN(C2)C1` (relative stereo) [E3, (±) exo-1-Azabicyclo[3.3.1]non-3-yl carbamate hydrochloride], the IC50 in experiment [1] is 103 nM; in experiment [2] it was 36000 nM.

Turning to `COC(=O)[C@@H]1C[C@H]2CCCN(C2)C1` (relative stereo) [E4, (±) exo-Methyl 1-azabicyclo[3.3.1]non-3-yl carboxylate oxalate], the IC50 stood at 81 nM in experiment [1] and 3900 nM in experiment [2].

Regarding `COC(=O)[C@@H]1C[C@H]2CCCCN(C2)C1` (relative stereo) [E5, (±) exo-Methyl 1-azabicyclo[4.3.1]dec-8-yl carboxylate oxalate], the IC50 in experiment [1] was 153 nM; in experiment [2], 3200 nM.

For `CC(=O)O[C@H]1CN2CCC[C@H]1C2` (relative stereo) [E6, (±) exo-1-Azabicyclo[3.2.1]oct-6-yl acetate hydrochloride], the IC50 was 82 nM in experiment [1] and 27000 nM in experiment [2].

`COC(=O)[C@H]1CN2CCC[C@H]1C2` (relative stereo) [E7, (±) exo-Methyl 1-azabicyclo[3.2.1]oct-6-yl carboxylate hydrochloride]: the IC50 in experiment [1] came out at 510 nM; in experiment [2] it was 65000 nM.

On to `COC[C@@H]1C[C@H]2CCCN(C2)C1` (relative stereo) [E9, (±) exo-3-Methoxymethyl-1-azabicyclo[3.3.1]nonane oxalate salt], for which the IC50 came to 1300 nM in experiment [1] and 38000 nM in experiment [2].

Regarding `C#CCOC(=O)[C@@H]1C[C@H]2CCCN(C2)C1` (relative stereo) [E10, (±) exo-Propargyl 1-azabicyclo[3.3.1]non-3-yl-carboxylate oxylate salt], the IC50 in experiment [1] was 40 nM; in experiment [2], 510 nM.

As to `CNC(=O)O[C@@H]1C[C@H]2CCCN(C2)C1` (relative stereo) [E11, (±) exo-1-Azabicyclo[3.3.1]non-3-yl-N-methylcarbamate hydrochloride salt], the IC50 came out at 460 nM in experiment [1] and 5200 nM in experiment [2].

For `CC(=O)O[C@H]1CN2CC[C@H]1C2` (relative stereo) [E12, (±) exo-1-Azabicyclo[2.2.1]hept-3-yl acetate oxalate salt], the figures for the IC50 in experiment [1] and in experiment [2] were 175 nM and 46000 nM, respectively.

As to `CCO[C@H]1CN2CC[C@H]1C2` (relative stereo) [E13, (±) exo-3-Ethoxy-1-azabicyclo[2.2.1]heptane oxalate salt], the IC50 in experiment [1] turned out to be 510 nM; in experiment [2], 54000 nM.

On to `CC(=O)O[C@@H]1C[C@H]2CCN(C2)C1` (relative stereo) [E14, (±) exo-1-Azabicyclo[3.2.1]oct-3-yl acetate hydrochloride salt], for which the IC50 in experiment [1] amounted to 38 nM; in experiment [2] it was 14000 nM.

Regarding `COC(=O)[C@@H]1C[C@H]2CCN(C2)C1` (relative stereo) [E15, (±) exo-Methyl-1-azabicyclo[3.2.1]oct-3-yl carboxylate hydrochloride], the IC50 is 80 nM in experiment [1] and 11000 nM in experiment [2].

As for `COC(=O)[C@H]1CN2CC[C@H]1C2` (relative stereo) [E16, (±) exo-Methyl 1-azabicyclo[2.2.1]hept-3-yl carboxylate oxalate salt], the IC50 was found to be 190 nM in experiment [1] and 60000 nM in experiment [2].

With `CCC(=O)O[C@H]1CN2CCC[C@H]1C2` (relative stereo) [E17, (±) exo-1-Azabicyclo[3.2.1]oct-6-yl propionate hydrochloride], the IC50 amounted to 410 nM in experiment [1] and 7300 nM in experiment [2].

Take `CCCO[C@H]1CN2CCC[C@H]1C2` (relative stereo) [E18, (±) exo-6-n-Propoxy-1-azabicyclo[3.2.1]octane hydrochloride]: the IC50 is 630 nM in experiment [1] and 15500 nM in experiment [2].

As for `CCO[C@H]1CN2CCC[C@H]1C2` (relative stereo) [E19, (±) exo-6-Ethoxy-1-azabicycl9[3.2.1]octane hydrochloride], the IC50 was found to be 460 nM in experiment [1] and 64000 nM in experiment [2].

With `CNC(=O)O[C@H]1CN2CCC[C@H]1C2` (relative stereo) [E20, (±) exo-1-Azabicyclo[3.2.1]oct-6-yl-N-methylcarbamate oxalate salt], the IC50 in experiment [1] came to 1900 nM; in experiment [2] it was 42000 nM.

Regarding `CCC(=O)O[C@@H]1C[C@H]2CCCN(C2)C1` (relative stereo) [E21, (±) exo-1-Azabicyclo[3.3.1]non-3-yl propionate hydrochloride salt], the IC50 in experiment [1] amounted to 367 nM; in experiment [2] it was 1000 nM.

With `CO[C@@H]1C[C@H]2CCCN(C2)C1` (relative stereo) [E22, (±) exo-3-Methoxy-1-azabicyclo[3.3.1]nonane oxalate salt], the IC50 in experiment [1] was 5000 nM; in experiment [2], 170000 nM.

For `CCCO[C@@H]1C[C@H]2CCCN(C2)C1` (relative stereo) [E23, (±) exo-3-n-Propoxy-1-azabicyclo[3.3.1]nonane oxalate salt], the IC50 in experiment [1] came out at 160 nM; in experiment [2] it was 1200 nM.

`CN(C)C(=O)O[C@@H]1C[C@H]2CCCN(C2)C1` (relative stereo) [E24, (±) exo-1-Azabicyclo[3.3.1]non-3-yl-N,N-dimetnyl-carbamate hydrochloride]: the IC50 in experiment [1] was 255 nM; in experiment [2], 1800 nM.

As to `CCOC(=O)[C@@H]1C[C@H]2CCCN(C2)C1` (relative stereo) [E25, (±) exo-Ethyl 1-azabicyclo[3.3.1]non-3yl carboxylate oxalate salt], the IC50 came to 65 nM in experiment [1] and 620 nM in experiment [2].
